Reference: patent US20110039763A1, “TARGETED ANTIMICROBIAL MOIETIES” (C3 JIAN, INC., priority 2009, published 2011)
Entries after “also recorded” stand apart in the source; their conditions may differ.

Assays:
microorganisms [1] = experiment: Targeting peptide binding to target microorganisms (Tables 3, 10, 12); conditions: peptide binding in aqueous buffers that varied with peptide solubility; preferably 1x PBS
Source text: In certain embodiments, the targeting moiety comprises one or more targeting peptides that bind particular bacteria, fungi, and/or yeasts, and/or algae, and/or viruses and/or that bind particular groups of bacteria, and/or groups of fungi, and/or groups of yeasts, and/or groups of algae.
In certain embodiments the targeting peptides include peptides comprising or consisting of one or more of the amino acid sequences shown in Table 3 (SEQ ID NOs:13-1566). In various embodiments the peptides include peptides comprising or consisting of the retro, inverso, retro-inverso, and/or beta form of one or more of the amino acid sequences shown in Table 3. Also contemplated are circular permutations of these sequences as well as peptides comprising or consisting of the retro, inverso, retro-inverso, and/or beta form of such circular permutations.
In certain embodiments the targeting peptide can comprise one or more domains capable of binding, specifically binding, or preferentially binding to a microorganism, e.g., a target microbial organism (see, e.g., Table 3). In certain embodiment, the targeting peptide be identified via screening peptide libraries. For example, a phage display peptide library can be screened against a target microbial organism or a desired antigen or epitope thereof. Any peptide identified through such screening can be used as a targeting peptide for the target microbial organism.

microorganisms [2] = experiment: Morphology, biofilm and growth disrupting peptides (Table 5); format: cell-based; design: key: A: Peptide aggregates; B: Less hyphal formation; Clumps; Diffuse clumps and small polyps; F: Diffuse growth; H: Thin; I: Growth inhibition; Microcolony formation; Rippled; Small polyps; Thick; W: Halo formation on top, microlonies on bottom
Source text: In certain embodiments peptides that induce alterations in phenotype or other biological activities can also be used as antimicrobial effector moieties.

1T-3 (VLGIAGGLDAYGELVGGN; Peptide with targeting and/or antimicrobial activity)
Target(s) (microorganism bound by the targeting peptide) (microorganisms [1]): S. mutans; also recorded: S. gordonii

DLLKSLLGQDGAKNDEIIEFIKIIMEK [PF-591]
Organism, effect (microorganisms [2]; C. jejuni): C. jejuni (C) | Organism, effect (microorganisms [2]; E. faecalis): E. faecalis (A) | Organism, effect (microorganisms [2]; S. pneumoniae): S. pneumoniae (R)

KTPNDKIHKTIIIKHIIL [PF-533]
Organism, effect (microorganisms [2]; E. coli): E. coli (R) | Organism, effect (microorganisms [2]; E. faecalis): E. faecalis (C) | Organism, effect (microorganisms [2]; MRSA): MRSA (H) | Organism, effect (microorganisms [2]; S. epidermidis): S. epidermidis (H) | Organism, effect (microorganisms [2]; S. pneumoniae): S. pneumoniae (C)

PF-019 (NDTNK; Peptide with targeting and/or antimicrobial activity)
Organism, effect: MRSA (microorganisms [2]; MRSA): MRSA (M)

PF-032 (RIVVPAHQSNMASTPNLSITP; Peptide with targeting and/or antimicrobial activity)
Organism, effect: C. jeikeium (microorganisms [2]): C. jeikeium (C) | Organism, effect: S. epidermidis (microorganisms [2]; S. epidermidis): S. epidermidis (S)

PF-059 (TITLKAGIERALHEEVPGVIEVEQVF; Peptide with targeting and/or antimicrobial activity)
Organism, effect: C. jejuni (microorganisms [2]; C. jejuni): C. jejuni (C)

PF-199 (FPAFSFGAIAGSVSVAR; Peptide with targeting and/or antimicrobial activity)
Organism, effect: C. jeikeium (microorganisms [2]): C. jeikeium (R) | Organism, effect: M. luteus (microorganisms [2]; M. luteus): M. luteus (A) | Organism, effect: S. epidermidis (microorganisms [2]; S. epidermidis): S. epidermidis (C)

PF-220 (VDPADDGTRHIRPEDGDPIEIDE; Peptide with targeting and/or antimicrobial activity)
Organism, effect: S. pneumoniae (microorganisms [2]; S. pneumoniae): S. pneumoniae (H)

PF-250 (SEDIFGRLANEKANGLEELRKIRLKQ; Peptide with targeting and/or antimicrobial activity)
Organism, effect: M. luteus (microorganisms [2]; M. luteus): M. luteus (T)

PF-264 (MQSLSNRQSLIASYILMGIFLSFGYPPASLSKFFCRLSHL; Peptide with targeting and/or antimicrobial activity)
Organism, effect: M. luteus (microorganisms [2]; M. luteus): M. luteus (H)

PF-274 (SIQEAEKIIKNDPFYIHDVADYDFMWFEPSKSLEEIKEFV; Peptide with targeting and/or antimicrobial activity)
Organism, effect: M. luteus (microorganisms [2]; M. luteus): M. luteus (M)

PF-290 (MVHDMTNGTLIIVKH; Peptide with targeting and/or antimicrobial activity)
Organism, effect: S. epidermidis (microorganisms [2]; S. epidermidis): S. epidermidis (C)

PF-293 (YDPLK; Peptide with targeting and/or antimicrobial activity)
Organism, effect: S. epidermidis (microorganisms [2]; S. epidermidis): S. epidermidis (C)

PF-296 (GAFGMPSIKTNTICGEKGKFISACDAWLSNLK; Peptide with targeting and/or antimicrobial activity)
Organism, effect: B. subtilis (microorganisms [2]; B. subtilis): B. subtilis (C) | Organism, effect: S. epidermidis (microorganisms [2]; S. epidermidis): S. epidermidis (C)

PF-303 (EYPWSWISEPWPWDKSFYK; Peptide with targeting and/or antimicrobial activity)
Organism, effect: B. subtilis (microorganisms [2]; B. subtilis): B. subtilis (C)

PF-310 (GVALIGTILVPLLSGLFG; Peptide with targeting and/or antimicrobial activity)
Organism, effect: S. epidermidis (microorganisms [2]; S. epidermidis): S. epidermidis (C)

PF-318 (MGRHLWNPSYFVATVSENTEEQIRKYINNQKKQVK; Peptide with targeting and/or antimicrobial activity)
Organism, effect: B. subtilis (microorganisms [2]; B. subtilis): B. subtilis (C) | Organism, effect: S. epidermidis (microorganisms [2]; S. epidermidis): S. epidermidis (C)

PF-335 (AAYPIEDWSDWYEDFFIMLSNI; Peptide with targeting and/or antimicrobial activity)
Organism, effect: B. subtilis (microorganisms [2]; B. subtilis): B. subtilis (C) | Organism, effect: S. epidermidis (microorganisms [2]; S. epidermidis): S. epidermidis (C)

PF-339 (KKIDILINKYMYLSK; Peptide with targeting and/or antimicrobial activity)
Organism, effect: B. subtilis (microorganisms [2]; B. subtilis): B. subtilis (C) | Organism, effect: S. epidermidis (microorganisms [2]; S. epidermidis): S. epidermidis (C)

PF-342 (AFSGVYKTLIVYTRRK; Peptide with targeting and/or antimicrobial activity)
Organism, effect: B. subtilis (microorganisms [2]; B. subtilis): B. subtilis (C) | Organism, effect: S. epidermidis (microorganisms [2]; S. epidermidis): S. epidermidis (C)

PF-415 (MIDVTIGQKSKTGAFNASYSICFSGENFSF; Peptide with targeting and/or antimicrobial activity)
Organism, effect: S. pneumoniae (microorganisms [2]; S. pneumoniae): S. pneumoniae (D)

PF-419 (VVTGKVGSLPQIK; Peptide with targeting and/or antimicrobial activity)
Organism, effect: S. pneumoniae (microorganisms [2]; S. pneumoniae): S. pneumoniae (H)

PF-449 (MPTTKSKQKGWTNTKKASNTQ; Peptide with targeting and/or antimicrobial activity)
Organism, effect (microorganisms [2]; S. pneumoniae): S. pneumoniae (H)

PF-455 (MARNDDDIKKIKGTLGQSPEVYGERKLPYT; Peptide with targeting and/or antimicrobial activity)
Organism, effect (microorganisms [2]; S. pneumoniae): S. pneumoniae (A)

PF-468 (EDNKDKKDKKDK; Peptide with targeting and/or antimicrobial activity)
Organism, effect (microorganisms [2]; S. pneumoniae): S. pneumoniae (H)

PF-485 (KNSMSRSIALID; Peptide with targeting and/or antimicrobial activity)
Organism, effect (microorganisms [2]; S. pneumoniae): S. pneumoniae (A)

PF-532 (KFIYKYKLSFIIYKILIQTLTMELNK; Peptide with targeting and/or antimicrobial activity)
Organism, effect (microorganisms [2]; E. coli): E. coli (C) | Organism, effect (microorganisms [2]; E. faecalis): E. faecalis (C) | Organism, effect (microorganisms [2]; MRSA): MRSA (C) | Organism, effect (microorganisms [2]; S. pneumoniae): S. pneumoniae (C)

PF-534 (KYFHLFYHNIIHYSKQHLSLKVDFKN; Peptide with targeting and/or antimicrobial activity)
Organism, effect (microorganisms [2]; E. coli): E. coli (R) | Organism, effect (microorganisms [2]; E. faecalis): E. faecalis (C) | Organism, effect (microorganisms [2]; MRSA): MRSA (C) | Organism, effect (microorganisms [2]; S. epidermidis): S. epidermidis (C) | Organism, effect (microorganisms [2]; S. pneumoniae): S. pneumoniae (R)

PF-535 (NIKTRKRALKIIKQHQRSK; Peptide with targeting and/or antimicrobial activity)
Organism, effect (microorganisms [2]; P. aeruginosa): P. aeruginosa (H) | Organism, effect (microorganisms [2]; S. pneumoniae): S. pneumoniae (H)

PF-536 (MEPIPHIMIIANQIGIIIEKA; Peptide with targeting and/or antimicrobial activity)
Organism, effect (microorganisms [2]; E. coli): E. coli (R) | Organism, effect (microorganisms [2]; E. faecalis): E. faecalis (C) | Organism, effect (microorganisms [2]; MRSA): MRSA (C) | Organism, effect (microorganisms [2]; P. aeruginosa): P. aeruginosa (H) | Organism, effect (microorganisms [2]; S. epidermidis): S. epidermidis (C) | Organism, effect (microorganisms [2]; S. pneumoniae): S. pneumoniae (M)

PF-541 (RRNLNSPNIKTRKRALKIIKQHQRSK; Peptide with targeting and/or antimicrobial activity)
Organism, effect (microorganisms [2]; E. coli): E. coli (H) | Organism, effect (microorganisms [2]; S. pneumoniae): S. pneumoniae (H)

PF-561 (ESLEADVQAELDTEAAKYPALPASF; Peptide with targeting and/or antimicrobial activity)
Organism, effect (microorganisms [2]; B. subtilis): B. subtilis (D) | Organism, effect (microorganisms [2]; MRSA): MRSA (M)

PF-565 (RAEAEAQRQAEADAKRKAEEAARL; Peptide with targeting and/or antimicrobial activity)
Organism, effect (microorganisms [2]; B. subtilis): B. subtilis (D) | Organism, effect (microorganisms [2]; MRSA): MRSA (C)

PF-571 (SDLLYYPNENREDSPAGVVKEVKE; Peptide with targeting and/or antimicrobial activity)
Organism, effect (microorganisms [2]; B. subtilis): B. subtilis (D)

PF-574 (LVKSGKLESPYEHSEHLTLSQEKGLE; Peptide with targeting and/or antimicrobial activity)
Organism, effect (microorganisms [2]; B. subtilis): B. subtilis (D)

PF-582 (NLKTIEKECPFCNNKMDIKLKD; Peptide with targeting and/or antimicrobial activity)
Organism, effect (microorganisms [2]; E. faecalis): E. faecalis (A)

PF-618 (KLNTLNKKDNPSLNDQDKNAVLNLLALAK; Peptide with targeting and/or antimicrobial activity)
Organism, effect (microorganisms [2]; E. faecalis): E. faecalis (H) | Organism, effect (microorganisms [2]; S. pneumoniae): S. pneumoniae (I)

PF-624 (VFLLDSYCFVKINL; Peptide with targeting and/or antimicrobial activity)
Organism, effect (microorganisms [2]; E. coli): E. coli (C) | Organism, effect (microorganisms [2]; M. luteus): M. luteus (C) | Organism, effect (microorganisms [2]; MRSA): MRSA (C) | Organism, effect (microorganisms [2]; P. mirabilis): P. mirabilis (C) | Organism, effect (microorganisms [2]; S. epidermidis): S. epidermidis (D) | Organism, effect (microorganisms [2]; S. mutans): S. mutans (D) | Organism, effect (microorganisms [2]; S. pneumoniae): S. pneumoniae (D)

PF-670 (chain 1 TVIVAPMHSGV; chain 2 TVIVAPMHSGV; Peptide with targeting and/or antimicrobial activity)
Organism, effect (microorganisms [2]; B. subtilis): B. subtilis (H) | Organism, effect (microorganisms [2]; S. pneumoniae): S. pneumoniae (H)

PF-C089 (MPKRHYYKLEAKALQFGLPFAYSPIQLLK; Peptide with targeting and/or antimicrobial activity)
Organism, effect (microorganisms [2]; P. gingivalis): P. gingivalis (R)

PF-C214 (GGHKQLVIEPLVSQ; Peptide with targeting and/or antimicrobial activity)
Organism, effect (microorganisms [2]; F. nucleatum): F. nucleatum (T)

PF-C293 (IIIILPKIYLVCKTV; Peptide with targeting and/or antimicrobial activity)
Organism, effect (microorganisms [2]; F. nucleatum): F. nucleatum (T) | Organism, effect (microorganisms [2]; P. gingivalis): P. gingivalis (R) | Organism, effect (microorganisms [2]; S. mutans): S. mutans (F)
